Source: patent EP1057484A1, “CELL DEATH INHIBITORS” (priority 1998, dated 1999)

system: erythrocytes; assay: Test Example 13: hydrogen peroxide-induced death of erythrocytes; format: cell-based; conditions: Homo sapiens, Erythrocyte; 20 µM added prior to hydrogen peroxide (300 µM); observation after 24 hours; read-out: ratios of dead erythrocytes (dark ghost cells)
Method: After human blood (2 mL) was centrifuged at 1000 rpm for 5 min, the resulting cell pellets containing erythrocytes were washed three times with a DMEM medium and the cells were resuspended in the same medium (15 mL) (about 5 × 10^8 cells/mL). Ten µL of this suspension was added with 10% FCS/DMEM (10 mL), and the cells were plated in 48 well plates (500 µL/well). When hydrogen peroxide (300 µM) was added to the erythrocyte culture solution and the cells were cultured for 24 hours, all erythrocytes were dead on observations under a light microscopy (all erythrocytes were subjected to shape changes from a bright, round and concave shape into a dark hemolytic ghost through multiple shape changes). On the other hand, Test Compound 14 (30 µM), Test Compound 18 (10 µM), Test Compound 19 (20 µM) or Test Compound 20 (20 µM) was added prior to the hydrogen peroxide addition.

SMILES	cytotoxicity at 20 µM [%]
CN1C(=O)C(c2c[nH]c3ccccc23)=C(c2cn(CCCN)c3ccccc23)C1=O [Compound 19]	10

system: Porcine Ovarian Granulosa Cells; assay: Test Example 7: inhibition of SNP-induced apoptosis of undifferentiated POGC; format: cell-based; conditions: Sus scrofa; for complete inhibition of apoptosis; SNP 0.5 mM; cells observed after 48 hours; read-out: Minimum effective concentration

SMILES	minimal effective concentration [µM]
CN1C(=O)C(c2c[nH]c3ccccc23)=C(c2c[nH]c3ccccc23)C1O (stereo not drawn) [Compound 16]	5
CN1C(=O)C(c2c[nH]c3ccccc23)C(c2c[nH]c3ccccc23)C1=O (stereo not drawn) [Compound 30]	10
CN1C(=O)C(c2c[nH]c3ccccc23)=C(c2cn(CCCN)c3ccccc23)C1=O [Compound 19]	0.7
CN1C(=O)C(c2cn(C(=O)OC(C)(C)C)c3ccccc23)=C(c2cn(C(=O)OC(C)(C)C)c3ccccc23)C1=O [Compound 23]	5
N=C(N)SCCCn1cc(C2=C(c3c[nH]c4ccccc34)C(=O)NC2=O)c2ccccc21 [Compound 27]	1
O=C1C(c2c[nH]c3ccccc23)=C(c2c[nH]c3ccccc23)C(=O)N1O [Compound 12]	15
CN1C(=O)C(c2c[nH]c3ccccc23)=C(c2cn(CCCNC(=O)c3ccccc3)c3ccccc23)C1=O [Compound 21]	7
CN1C(=O)C(c2c[nH]c3ccccc23)=C(c2cn(C(=O)OC(C)(C)C)c3ccccc23)C1=O [Compound 22]	5
CN1C(=O)C(c2c[nH]c3ccccc23)=C(c2c[nH]c3ccc(Cl)cc23)C1=O [Compound 24]	3
Cn1cc(C2=C(c3cn(CCCN)c4ccccc34)C(=O)NC2=O)c2ccccc21 [Compound 26]	1
O=C1NC(=O)C(c2c[nH]c3ccccc23)=C1c1c[nH]c2ccccc12 [Compound 13]	5
CCCN1C(=O)C(c2c[nH]c3ccccc23)=C(c2c[nH]c3ccccc23)C1=O [Compound 15]	3

same assay, conditions: Sus scrofa; for complete inhibition of apoptosis; SNP 0.5 mM; judged at 18 hours after SNP treatment; read-out: Minimum effective concentration

SMILES	minimal effective concentration [µM]
c1ccc(N2CC(c3c[nH]c4ccccc34)C(c3c[nH]c4ccccc34)C2)cc1 (stereo not drawn) [Compound 34]	0.3
CN1C(=O)C(c2c[nH]c3ccc(F)cc23)=C(c2c[nH]c3ccc(F)cc23)C1=O [Compound 41]	10
Cc1cccc2c(C3=C(c4c[nH]c5ccccc45)C(=O)N(C)C3=O)c[nH]c12 [Compound 39]	3
O=C1C(c2c[nH]c3ccccc23)=C(c2c[nH]c3ccccc23)C(=O)N1Cc1ccccc1 [Compound 49]	1
Cc1[nH]c2ccccc2c1C1=C(c2c[nH]c3ccccc23)C(=O)N(C)C1=O [Compound 46]	10
CN(C)CCCn1cc(C2=C(c3cn(CCCN(C)C)c4ccccc34)C(=O)N(C)C2=O)c2ccccc21 [Compound 37]	10
Cc1ccc2c(C3=C(c4c[nH]c5cc(C)ccc45)C(=O)N(C)C3=O)c[nH]c2c1 [Compound 38]	0.3
Cc1ccc2[nH]cc(C3=C(c4c[nH]c5ccc(C)cc45)C(=O)N(C)C3=O)c2c1 [Compound 40]	1
COc1ccc2[nH]cc(C3=C(c4c[nH]c5ccc(OC)cc45)C(=O)N(C)C3=O)c2c1 [Compound 44]	1
CN1C(=O)C(c2c[nH]c3ccccc23)=C(c2cn(C)c3ccccc23)C1=O [Compound 35]	10
CN1C(=O)C(c2c[nH]c3ccccc23)=C(c2c[nH]c3ccc(Cl)cc23)C1=O [Compound 43]	3
CN(C)CC1CCn2c(c(C3=C(c4cn(C)c5ccccc45)C(=O)NC3=O)c3ccccc32)C1 (stereo not drawn) [Compound 29]	1
CN1C(=O)C(c2c[nH]c3ccccc23)C(c2cn(CCCN)c3ccccc23)C1=O (stereo not drawn) [Compound 33]	10
CN1CCCC1CCn1cc(C2=C(c3c[nH]c4ccccc34)C(=O)NC2=O)c2ccccc21 (stereo not drawn) [Compound 28]	3
Cc1[nH]c2ccccc2c1C1=C(c2c(C)[nH]c3ccccc23)C(=O)N(C)C1=O [Compound 47]	10
CN1C(=O)C(c2cn(C)c3ccccc23)=C(c2cn(C)c3ccccc23)C1=O [Compound 36]	10
COc1cccc2[nH]cc(C3=C(c4c[nH]c5cccc(OC)c45)C(=O)N(C)C3=O)c12 [Compound 45]	3
CN1C(=O)C(c2c[nH]c3ccc(Br)cc23)=C(c2c[nH]c3ccc(Br)cc23)C1=O [Compound 42]	1
O=C1C(c2c[nH]c3ccccc23)=C(c2c[nH]c3ccccc23)C(=O)N1c1ccccc1 [Compound 48]	1

same assay, conditions: Sus scrofa; for complete inhibition of apoptosis; SNP 0.5 mM; judged at 30 hours after SNP treatment; read-out: Minimum effective concentration

SMILES	minimal effective concentration [µM]
NCCCn1cc(C2=C(c3c[nH]c4ccccc34)C(=O)NC2=O)c2ccccc21 [Compound 17]	3
CCN(CC)c1ccc2c(-c3ccc(S(=O)(=O)NCCCn4cc(C5=C(c6cn(C)c7ccccc67)C(=O)NC5=O)c5ccccc54)cc3S(=O)(=O)[O-])c3ccc(=[N+](CC)CC)cc-3oc2c1 [Compound 31]	3
O=C1OC(=O)C(c2c[nH]c3ccccc23)=C1c1c[nH]c2ccccc12 [Compound 11]	10

system: cerebellar granule cells; assay: Test Example 10: hydrogen peroxide-induced death of cerebellar granule cells; format: cell-based, rats; conditions: Rattus norvegicus; 10 µM added prior to hydrogen peroxide (10 µM); observation after 12 hours; read-out: cells alive
Method: According to a known method (A Dissection and Tissue Culture Manual of the Nervous System, p. 211, 1989, Alan R, Liss, Inc.), cerebellar granule cells were isolated from the cerebellum of 7 days old rats and cultured. Namely, after conducting isolation procedures described in the above literature, the resulting cells were resuspended in DMEM containing 10% fetal bovine serum, 25 mM KCl and 2 mM glutamine, and seeded in poly-lysine coated plates. After the cells were cultured in a CO2 incubator for 48 hours according to a conventional method, cytosine-1-β-D(+)-arabinofuranoside (Ara-C) (10 µM) was added thereto, and the cell was continued to culture. The following experiments were conducted with the cells of 7 to 14 days old from the start day of the culture, the cells having completed neurite extension sufficiently. […] Furthermore, experiments were conducted by increasing a concentration of hydrogen peroxide to 300 µM. In the cases that Test Compound 18 (10 µM), Test Compound 19 (10 µM), or Test Compound 20 (10 µM) were added, about 90%, 90%, and 70% of the cells were alive, respectively, on observations after 16 hours.

SMILES	viability at 10 µM [%]
CN1C(=O)C(c2c[nH]c3ccccc23)=C(c2cn(CCCN)c3ccccc23)C1=O [Compound 19]	> 95

same assay, conditions: Rattus norvegicus; 10 µM; hydrogen peroxide 300 µM; observation after 16 hours; read-out: cells alive

SMILES	viability at 10 µM [%]
CN1C(=O)C(c2c[nH]c3ccccc23)=C(c2cn(CCCN)c3ccccc23)C1=O [Compound 19]	~90

system: Porcine ovarian granulosa cells (POGC); assay: Test Example 1: inhibition of SNP-induced apoptosis of porcine ovarian granulosa cells; format: cell-based; conditions: Sus scrofa; for complete inhibition of apoptosis; SNP 0.5 mM; cells observed after 48 hours; read-out: Minimum effective concentration
Text: Porcine ovarian granulosa cells (POGC) were isolated from porcine ovaries and cultured following to a known method (Endocrinology, Vol. 136, p. 3470, 1995). Namely, porcine ovaries were rinsed with PBS buffer, and POGC were collected by aspiration from antral follicles with a syringe. Cell fraction was recovered as a precipitate by centrifugation of the suspension. The operation of suspending the cell fraction into PBS buffer and subjecting the resulting suspension to centrifugation was repeated three times to wash the cells. The POGC obtained as a precipitate were suspended again into a culture medium (DMEM containing 10% fetal bovine serum) and cell clumps were disrupted by pipetting. The cell suspension was passed through a mesh to remove contaminating tissue fragments, and then pipetted in 24-well plates for cell culture. The cell suspension was cultured for 2 days in a CO2 incubator according to a conventional procedure (37°C, 5% CO2). Then, the medium was refreshed to remove floating cells and the culture was continued for further 2 to 3 days until the cells reached subconfluency (0.7 to 2 × 10^5 cell/well). After the attaching cells were washed with serum-free medium, they were cultured in a serum-free DMEM (containing 5 µg/mL of transferrin, and 40 ng/mL of hydrocortisone, 4 mg/mL of bovine serum albumin (BSA), 100 nM androstendione).
The cell death was also confirmed by MTT assay. […] The results are shown in Table 1 where a minimum effective concentration of each compound for complete inhibition of apoptosis is described.

SMILES	minimal effective concentration [µM]
Cc1cccc2c(C3=C(Br)C(=O)N(C)C3=O)c[nH]c12 [Compound 4]	10
Cc1ccc2c(c1)c(C1=C(Br)C(=O)N(C)C1=O)cn2C(=O)OC(C)(C)C [Compound 6]	3
CN1C(=O)C(Br)=C(c2c[nH]c3ccc(Cl)cc23)C1=O [Compound 5]	15
Cc1ccc2[nH]cc(C3=C(Br)C(=O)N(C)C3=O)c2c1 [Compound 3]	3
CN1C(=O)C(Br)=C(c2cn(C(=O)OC(C)(C)C)c3ccc(Cl)cc23)C1=O [Compound 8]	7
CN1C(=O)C(Br)=C(c2cn(C(=O)OC(C)(C)C)c3ccccc23)C1=O [Compound 2]	10
Cc1cccc2c(C3=C(Br)C(=O)N(C)C3=O)cn(C(=O)OC(C)(C)C)c12 [Compound 7]	7

same assay, conditions: Sus scrofa; for complete inhibition of apoptosis; SNP 0.5 mM; judged at 18 hours after SNP treatment; read-out: Minimum effective concentration

SMILES	minimal effective concentration [µM]
CN1C(=O)C(Br)=C(c2c[nH]c3ccccc23)C1=O [Compound 1, 2-bromo-3-(1H-indol-3-yl)-N-methylmaleimide]	15
CN1C(=O)C(Br)=C(c2cn(C)c3ccccc23)C1=O [Compound 9, 2-bromo-3-(1-methyl-1H-indol-3-yl)-N-methylmaleimide]	15

same assay, conditions: Sus scrofa; for complete inhibition of apoptosis; SNP 0.5 mM; judged at 35 hours after SNP treatment; read-out: Minimum effective concentration

SMILES	minimal effective concentration [µM]
CCCCCCCn1cc(C2=C(Br)C(=O)N(C)C2=O)c2ccccc21 [Compound 10]	3

system: cerebellar granule cells; assay: Test Example 11: SNP-induced death of cerebellar granule cells; format: cell-based, rats; conditions: Rattus norvegicus; 10 µM added prior to SNP (1.5 µM); observation after 12 hours; read-out: cells alive

SMILES	viability at 10 µM [%]
CN1C(=O)C(c2c[nH]c3ccccc23)=C(c2cn(CCCN)c3ccccc23)C1=O [Compound 19]	> 95

system: 4B2 cells; assay: Test Example 9: SNP-induced apoptosis of 4B2 granulosa cell line; format: cell-based; conditions: Mus musculus; 10 µM added prior to SNP (0.5 mM); observation after 24 hours; read-out: cells alive
Method: Mouse granulosa cells were transfected with SV40 T antigen and cDNA of steroidogenic factor-1 (SF-1/Ad4BP) to establish a cell line, named 4B2. The cell secretes progesterone in response to protein kinase-A. The 4B2 cells were cultured in 48-well culture plates until subconfluency in DMEM containing 10% fetal bovine serum in a CO2 incubator according to a conventional manner. After the medium was switched to DMEM containing 2% fetal bovine serum, SNP (0.5 mM) was added thereto. […] Then, prior to the addition of SNP, Test Compound 13, 14, 17, 20, 24 or 25 (10 µM each) was added to the present medium and observations on cells were made after 24 hours.

SMILES	viability at 10 µM [%]
NCCCn1cc(C2=C(c3c[nH]c4ccccc34)C(=O)NC2=O)c2ccccc21 [Compound 17]	> 95
CN1C(=O)C(c2c[nH]c3ccccc23)=C(c2c[nH]c3ccc(Cl)cc23)C1=O [Compound 24]	> 95
O=C1NC(=O)C(c2c[nH]c3ccccc23)=C1c1c[nH]c2ccccc12 [Compound 13]	> 95
